# Reference: ChEMBL document CHEMBL1143950, “Antifungal and cytotoxic activities of some N-substituted aniline derivatives bearing a hetaryl fragment” (Bioorg Med Chem, 2008)
# Columns and labels:
# Type in all cases: functional
# Candida albicans = assay: Antifungal activity against Candida albicans ATCC 10231 by micro-broth dilution method
# Candida tropicalis = assay: Antifungal activity against Candida tropicalis C131 by micro-broth dilution method
# Saccharomyces cerevisiae = assay: Antifungal activity against Saccharomyces cerevisiae ATCC 9763 by microbroth dilution method
# Cryptococcus neoformans = assay: Antifungal activity against Cryptococcus neoformans ATCC 32264 by microbroth dilution method
# Aspergillus fumigatus = assay: Antifungal activity against Aspergillus fumigatus ATCC 26934 by micro-broth dilution method
# Aspergillus flavus = assay: Antifungal activity against Aspergillus flavus ATCC 9170 by micro-broth dilution method
# Trichophyton rubrum = assay: Antifungal activity against Trichophyton rubrum C113 by microbroth dilution method
# Aspergillus niger = assay: Antifungal activity against Aspergillus niger ATCC 9029 by micro-broth dilution method
# Nannizzia gypsea = assay: Antifungal activity against Microsporum gypseum C115 by microbroth dilution method
# [1] = system: Trichophyton mentagrophytes; assay: Antifungal activity against Trichophyton mentagrophytes ATCC 9972 by micro-broth dilution method
Structure (SMILES),MIC (Candida albicans),MIC (Candida tropicalis),MIC (Saccharomyces cerevisiae),MIC (Cryptococcus neoformans),MIC (Aspergillus fumigatus),MIC (Aspergillus flavus),MIC (Trichophyton rubrum),MIC (Aspergillus niger),MIC (Nannizzia gypsea),MIC [1]
c1ccc(NCc2cccs2)cc1,> 250 µg/mL,> 250 µg/mL,> 250 µg/mL,> 250 µg/mL,> 250 µg/mL,> 250 µg/mL,12.5 µg/mL,> 250 µg/mL,25 µg/mL,25 µg/mL
c1ccc(NCc2ccncc2)cc1,> 250 µg/mL,250 µg/mL,> 250 µg/mL,> 250 µg/mL,250 µg/mL,250 µg/mL,125 µg/mL,250 µg/mL,125 µg/mL,125 µg/mL
C=CCC(Nc1ccc(Cl)c(Cl)c1)c1ccco1 (stereo not given),> 250 µg/mL,> 250 µg/mL,> 250 µg/mL,> 250 µg/mL,> 250 µg/mL,> 250 µg/mL,> 250 µg/mL,> 250 µg/mL,> 250 µg/mL,> 250 µg/mL
COc1ccc(CNc2ccccc2)cc1,> 250 µg/mL,> 250 µg/mL,> 250 µg/mL,> 250 µg/mL,> 250 µg/mL,> 250 µg/mL,25 µg/mL,> 250 µg/mL,25 µg/mL,25 µg/mL
Oc1ccc(CNc2ccccc2)cc1,> 250 µg/mL,250 µg/mL,250 µg/mL,> 250 µg/mL,> 250 µg/mL,> 250 µg/mL,25 µg/mL,> 250 µg/mL,50 µg/mL,25 µg/mL
CN(C)c1ccc(CNc2ccccc2)cc1,> 250 µg/mL,> 250 µg/mL,> 250 µg/mL,> 250 µg/mL,200 µg/mL,> 250 µg/mL,> 250 µg/mL,> 250 µg/mL,> 250 µg/mL,> 250 µg/mL
N#CC(Nc1ccccc1)c1ccoc1 (stereo not given),> 250 µg/mL,> 250 µg/mL,> 250 µg/mL,> 250 µg/mL,> 250 µg/mL,> 250 µg/mL,250 µg/mL,> 250 µg/mL,> 250 µg/mL,250 µg/mL
C=CCC(Nc1ccc(Cl)cc1)c1ccoc1 (stereo not given),> 250 µg/mL,> 250 µg/mL,> 250 µg/mL,125 µg/mL,> 250 µg/mL,> 250 µg/mL,62.5 µg/mL,> 250 µg/mL,62.5 µg/mL,62.5 µg/mL
Cc1cc(C)cc(NCc2cccnc2)c1,> 250 µg/mL,> 250 µg/mL,200 µg/mL,100 µg/mL,100 µg/mL,200 µg/mL,25 µg/mL,200 µg/mL,25 µg/mL,25 µg/mL

# Next, values leading:
MIC (Candida albicans),MIC (Candida tropicalis),MIC (Saccharomyces cerevisiae),MIC (Cryptococcus neoformans),MIC (Aspergillus fumigatus),MIC (Aspergillus flavus),MIC (Trichophyton rubrum),MIC (Aspergillus niger),MIC (Nannizzia gypsea),MIC [1],Structure (SMILES)
> 250 µg/mL,> 250 µg/mL,> 250 µg/mL,125 µg/mL,> 250 µg/mL,> 250 µg/mL,125 µg/mL,> 250 µg/mL,250 µg/mL,125 µg/mL,Cc1ccc(NC(C#N)c2ccsc2)cc1 (stereo not given)
> 250 µg/mL,200 µg/mL,> 250 µg/mL,50 µg/mL,100 µg/mL,100 µg/mL,50 µg/mL,100 µg/mL,50 µg/mL,50 µg/mL,Cc1cc(C)cc(NCc2ccccn2)c1
> 250 µg/mL,> 250 µg/mL,> 250 µg/mL,> 250 µg/mL,> 250 µg/mL,> 250 µg/mL,> 250 µg/mL,> 250 µg/mL,> 250 µg/mL,> 250 µg/mL,COc1ccc(CNc2cccc([N+](=O)[O-])c2)cc1
> 250 µg/mL,> 250 µg/mL,> 250 µg/mL,> 250 µg/mL,> 250 µg/mL,> 250 µg/mL,250 µg/mL,> 250 µg/mL,250 µg/mL,250 µg/mL,Cn1cccc1C(C#N)Nc1ccccc1 (stereo not given)
> 250 µg/mL,> 250 µg/mL,200 µg/mL,100 µg/mL,200 µg/mL,100 µg/mL,25 µg/mL,100 µg/mL,25 µg/mL,25 µg/mL,Ic1ccc(NCc2ccccn2)cc1
> 250 µg/mL,250 µg/mL,> 250 µg/mL,100 µg/mL,125 µg/mL,250 µg/mL,25 µg/mL,250 µg/mL,100 µg/mL,50 µg/mL,Cc1ccc(NCc2ccco2)cc1
250 µg/mL,250 µg/mL,250 µg/mL,50 µg/mL,100 µg/mL,200 µg/mL,25 µg/mL,100 µg/mL,25 µg/mL,25 µg/mL,Cc1cc(C)cc(NCc2ccncc2)c1
250 µg/mL,250 µg/mL,> 250 µg/mL,> 250 µg/mL,250 µg/mL,250 µg/mL,125 µg/mL,250 µg/mL,125 µg/mL,125 µg/mL,c1ccc(NCc2cccnc2)cc1
250 µg/mL,250 µg/mL,> 250 µg/mL,250 µg/mL,62.5 µg/mL,100 µg/mL,100 µg/mL,100 µg/mL,100 µg/mL,100 µg/mL,c1ccc(NCc2ccco2)cc1
